The values below come from ChEMBL document CHEMBL1201862, “PubChem BioAssay data set” (2004).

Structures are written as SMILES.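 Assay format: 96-well plates, 48-hour exposure. Here, GI50 denotes the concentration required for 50% inhibition of growth.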 Activity calls are given as the source filed them. Rule as the data show it: active = GI50 up to about 1.1 µM and inactive = higher. Where a SMILES comes first, the peptide text is derived from it. The star is where a group is joined. Boc = CC(C)(C)OC(=O)*; Bn = c1ccc(C*)cc1

Among the test systems are NCI-H522; RXF 393; Malme-3M; IGROV-1; SF-295; OVCAR-5; A549; CAKI-1; U-251; M14; HL-60; HT-29; UACC-62; TK-10; SF-268; MDA-MB-231; HOP-92; NCI-H226; SR.
Common to all, as to assay: NCI anticancer screen, dose series, 48 h

With `CC(=O)OCC1OC(On2ccccc2=S)C(OC(C)=O)C(OC(C)=O)C1OC(C)=O` (stereo not given), the GI50 in the assay on NCI-H522 is 49.7 µM (inactive); in the assay on RXF 393, > 100 µM (inactive); in the assay on Malme-3M, > 100 µM (inactive); in the assay with IGROV-1 it was > 100 µM (inactive); in the assay on SF-295 it was > 100 µM (inactive); in the assay with OVCAR-5, > 100 µM (inactive). In addition, the GI50 with A549 was > 100 µM (inactive); with CAKI-1, > 100 µM (inactive); in the assay on U-251, > 100 µM (inactive); with M14, > 100 µM (inactive); in the assay on HL-60 it was 1.55 µM (inactive); with HT-29 it was 78.9 µM (inactive). Moreover, the GI50 in the assay with UACC-62, in the assay with TK-10, in the assay with SF-268, with MDA-MB-231 and in the assay with HOP-92 was > 100 µM (inactive) throughout.
As for `O=C1C(NCCc2ccc(O)c([N+](=O)[O-])c2)=CC(=O)c2[nH]cnc21`, the GI50 with NCI-H522 is 18.6 µM (inactive); in the assay with Malme-3M, 5.79 µM (inactive); in the assay with IGROV-1, 29.9 µM (inactive); in the assay on SF-295, 10.5 µM (inactive); in the assay on OVCAR-5 it was 33.3 µM (inactive); in the assay on A549, 28.6 µM (inactive). Also, the GI50 with U-251 was 32.3 µM (inactive); in the assay on M14 it was 15 µM (inactive); in the assay on HL-60 it was 21.2 µM (inactive); in the assay on HT-29, 34.6 µM (inactive); with UACC-62 it was 20.8 µM (inactive); in the assay on TK-10, 36.1 µM (inactive). The GI50 in the assay with MDA-MB-231 is 22.7 µM (inactive).
For the compound `Cc1ccsc1/C=N/Nc1nncc2ccccc12`, the GI50 is 15.8 µM (inactive) in the assay with RXF 393; 15.9 µM (inactive) with IGROV-1; > 100 µM (inactive) in the assay on SF-295; > 100 µM (inactive) with OVCAR-5; 96.4 µM (inactive) in the assay with A549; > 100 µM (inactive) in the assay on CAKI-1. Further, the GI50 was 58.3 µM (inactive) with U-251; > 100 µM (inactive) with M14; > 100 µM (inactive) in the assay with NCI-H226; > 100 µM (inactive) with HT-29; > 100 µM (inactive) in the assay with UACC-62; > 100 µM (inactive) in the assay on TK-10. Moreover, the GI50 was 93.3 µM (inactive) in the assay on SF-268, > 100 µM (inactive) in the assay with MDA-MB-231 and > 100 µM (inactive) in the assay on HOP-92.
With `COc1ccc2c(-c3csc(-c4c[nH]c5ccc(Br)cc45)n3)c[nH]c2c1`, the GI50 in the assay on NCI-H522 is 23.1 µM (inactive); with RXF 393, 11.9 µM (inactive); in the assay with Malme-3M, 17.5 µM (inactive); with IGROV-1, 81.5 µM (inactive); in the assay on SF-295 it was 73.5 µM (inactive); in the assay with OVCAR-5, 42.8 µM (inactive). For the same compound, the GI50 is 91.8 µM (inactive) in the assay with A549; 85.7 µM (inactive) in the assay on CAKI-1; 25.1 µM (inactive) in the assay with U-251; > 100 µM (inactive) with M14; 45.4 µM (inactive) in the assay with NCI-H226; 77.6 µM (inactive) in the assay with HT-29. For the same compound, the GI50 in the assay on UACC-62 is > 100 µM (inactive); in the assay on TK-10 it was 49 µM (inactive); in the assay with SF-268 it was 25.9 µM (inactive); in the assay with MDA-MB-231, 13.9 µM (inactive); in the assay with HOP-92 it was 64.3 µM (inactive).
With `COC(=O)C(CC(C)C)NC(=O)C(C)NC(=O)C(Cc1ccc(OCc2ccccc2)cc1)NC(=O)C(COCc1ccccc1)NC(=O)OC(C)(C)C` (stereo not given) (Boc-S(Bn)Y(Bn)AL-OMe; configuration not given here), the GI50 in the assay on NCI-H522, in the assay on RXF 393, with Malme-3M, in the assay on IGROV-1, with SR and in the assay on SF-295 was > 100 µM (inactive) throughout. Besides, the GI50 with OVCAR-5, with A549, in the assay with CAKI-1, in the assay on U-251, with M14 and in the assay with NCI-H226 was > 100 µM (inactive) in each case. For the same compound, the GI50 in the assay with HL-60 is 41.2 µM (inactive); in the assay on HT-29, > 100 µM (inactive); in the assay with UACC-62, 96.6 µM (inactive); in the assay on TK-10, > 100 µM (inactive); in the assay on SF-268, > 100 µM (inactive); with HOP-92, > 100 µM (inactive).
As for `CC(C)Oc1c(O)c2c3c(oc(=O)n3C=CC2c2ccccc2)c1OC(C)C` (stereo not given), the GI50 in the assay with IGROV-1 is 21.9 µM (inactive); in the assay with SF-295, 20.8 µM (inactive); in the assay with OVCAR-5, 34.4 µM (inactive); in the assay on A549, 27.3 µM (inactive); with CAKI-1 it was 29.2 µM (inactive); in the assay on U-251, 20.8 µM (inactive). The GI50 is 20 µM (inactive) with M14; 27.6 µM (inactive) in the assay on NCI-H226; 27 µM (inactive) in the assay on HL-60; 24.2 µM (inactive) in the assay on HT-29; 22.1 µM (inactive) with TK-10; 30.3 µM (inactive) in the assay on MDA-MB-231. Moreover, in the assay on HOP-92, the GI50 is 30.2 µM (inactive).
Turning to `N#Cc1nc(C2=C(Cl)c3ccccc3OC2)[nH]c1C#N`, the GI50 in the assay on RXF 393 was 13.9 µM (inactive); with IGROV-1, 30.1 µM (inactive); with OVCAR-5 it was 38.5 µM (inactive); in the assay with A549 it was 33.3 µM (inactive); with CAKI-1 it was 58.6 µM (inactive); with U-251, 18.4 µM (inactive). Moreover, the GI50 with M14 is 19.4 µM (inactive); in the assay on HL-60, 22.7 µM (inactive); with HT-29 it was 19.1 µM (inactive); in the assay with UACC-62 it was 22.9 µM (inactive); in the assay with TK-10, 33.6 µM (inactive); with SF-268 it was 32.6 µM (inactive). Besides, in the assay with HOP-92, the GI50 is 14.9 µM (inactive).
As for `N#C/C(C(=O)Nc1ccc(Cl)cc1)=C(/N)N1CCCC1`, the GI50 in the assay on IGROV-1, with SR, with SF-295, in the assay on OVCAR-5, in the assay with A549 and in the assay on CAKI-1 was > 100 µM (inactive) in each case. In addition, the GI50 was > 100 µM (inactive) in the assay with U-251; > 100 µM (inactive) with M14; > 100 µM (inactive) with NCI-H226; 0.635 µM (active) with HL-60; > 100 µM (inactive) in the assay with UACC-62; > 100 µM (inactive) in the assay on HOP-92.
For `Cc1c([C@H](C)[C@@H]2NC[C@@H](C)C[C@H]2O)ccc2c1C[C@H]1[C@H]2CC=C2C[C@@H](O)CC[C@@]21C` [VERATRAMINE], the GI50 in the assay with NCI-H522 is 13 µM (inactive); with RXF 393, 17.5 µM (inactive); in the assay with Malme-3M, 16.2 µM (inactive); with IGROV-1, 16.1 µM (inactive); in the assay with SF-295, 12.4 µM (inactive); in the assay on OVCAR-5, 17.8 µM (inactive). The GI50 in the assay with A549 was 16.7 µM (inactive); in the assay with CAKI-1, 26.6 µM (inactive); with U-251, 14 µM (inactive); in the assay on M14, 15.7 µM (inactive); in the assay on NCI-H226 it was 11.9 µM (inactive); in the assay on HT-29 it was 13.7 µM (inactive). Besides, the GI50 in the assay on UACC-62 is 13 µM (inactive); in the assay on TK-10 it was 24.4 µM (inactive); in the assay with SF-268, 27.7 µM (inactive); in the assay on MDA-MB-231 it was 16.4 µM (inactive); in the assay with HOP-92, 2.07 µM (inactive).
